# Molecular target: P. falciparum apicoplast DNA polymerase (Pf-apPOL) (Plasmodium falciparum, UniProt Q8ILY1)
# Assay: Fluorescence-based high-throughput DNA polymerase assay (molecular beacon), primary screen and dose-response
# Type: biochemical
# Details: for DNA Pol: unit not given, 90 min, 10 µM; for % inhibition apPOL 180' 2.5 / % inhibition apPOL 180' 5 / % inhibition apPOL 180' 10 / % inhibition apPOL 180' 20 / % inhibition apPOL 180' 40 / % inhibition apPOL 180' 80: read at 180'
# Outline: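 Single-point screening used 10 µM compound with 20 nM polymerase, 20 nM hairpin substrate and 6 µM dNTPs for 90 min at 25 °C. Confirmatory titrations (2.5–80 µM) followed fluorescence at three times, and IC50 was derived from a fit including a cooperativity term n.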
# P. falciparum apicoplast DNA polymerase (Pf-apPOL), sequence (Q8ILY1 entry or part of it): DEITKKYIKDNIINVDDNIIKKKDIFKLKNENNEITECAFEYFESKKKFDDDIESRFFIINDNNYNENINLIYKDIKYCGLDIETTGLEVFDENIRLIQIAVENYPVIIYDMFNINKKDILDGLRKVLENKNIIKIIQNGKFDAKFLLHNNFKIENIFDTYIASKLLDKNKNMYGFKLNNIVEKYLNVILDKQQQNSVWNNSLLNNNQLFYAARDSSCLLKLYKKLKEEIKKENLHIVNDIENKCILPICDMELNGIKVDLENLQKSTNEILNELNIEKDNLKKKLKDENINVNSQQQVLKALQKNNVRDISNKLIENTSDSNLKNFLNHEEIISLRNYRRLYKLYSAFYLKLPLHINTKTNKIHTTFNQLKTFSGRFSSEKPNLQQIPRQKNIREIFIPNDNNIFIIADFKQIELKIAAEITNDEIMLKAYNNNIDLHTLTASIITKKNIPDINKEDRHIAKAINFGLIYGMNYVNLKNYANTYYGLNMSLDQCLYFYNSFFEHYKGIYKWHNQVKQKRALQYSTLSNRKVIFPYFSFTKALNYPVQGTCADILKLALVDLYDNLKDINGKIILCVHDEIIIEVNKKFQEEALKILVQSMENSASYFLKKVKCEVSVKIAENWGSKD
structure (smiles),measurement,setting,value
"COc1ccc(/C=C/c2cc(C(=O)O)c3ccccc3n2)cc1 [Molecule 5, COc1ccc(cc1)/C=C/c1nc2ccccc2c(c1)C(=O)O]",DNA Pol,"186 hits, DNA Pol (screen value)",61
same,DNA Pol,'DNA Pol' (screen value),61
same,% inhibition Apo pol 10' 2.5,"DRC-1, read at 10', concentration 2.5",43.4862%
same,% inhibition Apo pol 10' 5,"DRC-1, read at 10', concentration 5",53.3879%
same,% inhibition Apo pol 10' 10,"DRC-1, read at 10', concentration 10",61.7052%
same,% inhibition Apo pol 10' 20,"DRC-1, read at 10', concentration 20",65.8277%
same,% inhibition Apo pol 10' 40,"DRC-1, read at 10', concentration 40",71.2771%
same,% inhibition Apo pol 10' 80,"DRC-1, read at 10', concentration 80",72.4327%
same,% inhibition Apol 90' 2.5,"DRC-1, read at 90', concentration 2.5",35.7188%
same,% inhibition Apol 90' 5,"DRC-1, read at 90', concentration 5",44.8099%
same,% inhibition Apol 90' 10,"DRC-1, read at 90', concentration 10",55.1819%
same,% inhibition Apol 90' 20,"DRC-1, read at 90', concentration 20",60.94%
same,% inhibition Apol 90' 40,"DRC-1, read at 90', concentration 40",68.5014%
same,% inhibition Apol 90' 80,"DRC-1, read at 90', concentration 80",67.8921%
same,% inhibition apPOL 180' 2.5,"DRC-1, concentration 2.5",28.4361%
same,% inhibition apPOL 180' 5,"DRC-1, concentration 5",35.945%
same,% inhibition apPOL 180' 10,"DRC-1, concentration 10",46.8104%
same,% inhibition apPOL 180' 20,"DRC-1, concentration 20",54.1695%
same,% inhibition apPOL 180' 40,"DRC-1, concentration 40",63.6204%
same,% inhibition apPOL 180' 80,"DRC-1, concentration 80",63.471%
same,% inhibition Apo pol 5',"DRC-2, 5', concentration 20",38%
same,% inhibition Apol 40',"DRC-2, concentration 2.5",46%
same,% inhibition Apol 40',"DRC-2, concentration 5",36%
same,% inhibition Apol 40',"DRC-2, concentration 20",46%
same,% inhibition Apol 40',"DRC-2, concentration 80",38%
same,% inhibition ApPOL 90',"DRC-2, concentration 2.5",45%
same,% inhibition ApPOL 90',"DRC-2, concentration 5",36%
same,% inhibition ApPOL 90',"DRC-2, concentration 20",46%
same,% inhibition apPOL 180',"DRC-2, concentration 20",38%
same,% inhibition apPOL 180',"DRC-2, concentration 80",45%
same,% inhibition Apo pol 5' 2.5,"DRC-2, read at 5', concentration 2.5",37%
same,% inhibition Apo pol 5' 5,"DRC-2, read at 5', concentration 5",31%
same,% inhibition Apo pol 5' 10,"DRC-2, read at 5', concentration 10",8.56%
same,% inhibition Apo pol 5' 20,"DRC-2, read at 5', concentration 20",38%
same,% inhibition Apo pol 5' 40,"DRC-2, read at 5', concentration 40",43%
same,% inhibition Apo pol 5' 80,"DRC-2, read at 5', concentration 80",14%
same,% inhibition Apol 40' 2.5,"DRC-2, read at 40', concentration 2.5",46%
same,% inhibition Apol 40' 5,"DRC-2, read at 40', concentration 5",36%
same,% inhibition Apol 40' 10,"DRC-2, read at 40', concentration 10",-66%
same,% inhibition Apol 40' 20,"DRC-2, read at 40', concentration 20",46%
same,% inhibition Apol 40' 40,"DRC-2, read at 40', concentration 40",55%
same,% inhibition Apol 40' 80,"DRC-2, read at 40', concentration 80",38%
same,% inhibition ApPOL 90' 2.5,"DRC-2, read at 90', concentration 2.5",45%
same,% inhibition ApPOL 90' 5,"DRC-2, read at 90', concentration 5",36%
same,% inhibition ApPOL 90' 10,"DRC-2, read at 90', concentration 10",-90%
same,% inhibition ApPOL 90' 20,"DRC-2, read at 90', concentration 20",46%
same,% inhibition ApPOL 90' 40,"DRC-2, read at 90', concentration 40",56%
same,% inhibition ApPOL 90' 80,"DRC-2, read at 90', concentration 80",44%
same,% inhibition apPOL 180' 2.5,"DRC-2, concentration 2.5",34%
same,% inhibition apPOL 180' 5,"DRC-2, concentration 5",25%
same,% inhibition apPOL 180' 10,"DRC-2, concentration 10",-139%
same,% inhibition apPOL 180' 20,"DRC-2, concentration 20",38%
same,% inhibition apPOL 180' 40,"DRC-2, concentration 40",50%
same,% inhibition apPOL 180' 80,"DRC-2, concentration 80",45%
